Experiments:
[1] = target: T1, human S1P1 (Homo sapiens, UniProt P21453); assay: Calcium mobilization assay, agonist activity at human S1P1; type: cell-based; settings: recombinant CHEM cells expressing human S1P1, FLIPR Calcium 4 dye (FIG. 8, FIG. 11)
T1 construct: host or cells: recombinant CHEM cells
Description: (§1) Compounds that were not specific for the S1P, receptor, can have activity for other S1P receptor subtypes, e.g., S1P2, S1P3, S1P4, or S1P5, and can cause undesirable side effects. Accordingly, compounds were tested to identify those that were specific for S1P1 activity and had little or no activity, or are antagonists of, S1P3 activity. Accordingly, the test compounds were tested in a calcium mobilization assay to determine agonist activity at either the human S1P1 or human S1P3 receptor, and antagonist activity only at the human S1P3 receptor. The procedure was essentially as described (with modifications described below) in Davis et al. (2005) Journal of Biological Chemistry, vol. 280, pp. 9833-9841, which is incorporated by reference in its entirety. Calcium mobilization assays were performed in recombinant CHEM cells expressing human S1P1 or S1P3 purchased from Millipore (Billerica, Mass.). To detect free intracellular calcium, S1P1 or S1P3 cells were loaded with FLIPR Calcium 4 dye from Molecular Devices (Sunnyvale, Calif.). Cells were imagined for calcium mobilization using a FLIPR^TETRA equipped with a 96-well dispense head.

[2] = target: T2, human S1P3 receptor (Homo sapiens, UniProt Q99500); assay: Calcium mobilization assay, agonist activity at human S1P3; type: cell-based; settings: recombinant CHEM cells expressing human S1P3, FLIPR Calcium 4 dye (FIG. 9, FIG. 11)
T2 construct: host or cells: recombinant CHEM cells
T2 sequence (Q99500 whole entry): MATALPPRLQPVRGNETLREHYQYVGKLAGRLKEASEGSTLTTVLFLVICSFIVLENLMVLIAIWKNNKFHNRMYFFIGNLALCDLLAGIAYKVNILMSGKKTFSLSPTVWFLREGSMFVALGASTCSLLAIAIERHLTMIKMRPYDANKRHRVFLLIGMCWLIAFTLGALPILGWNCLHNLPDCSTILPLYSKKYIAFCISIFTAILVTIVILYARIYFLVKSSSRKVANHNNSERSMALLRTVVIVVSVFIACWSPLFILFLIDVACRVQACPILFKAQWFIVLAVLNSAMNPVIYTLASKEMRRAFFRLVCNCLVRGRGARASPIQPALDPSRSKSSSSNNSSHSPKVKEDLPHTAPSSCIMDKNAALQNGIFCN
Description: as §1

[3] = target: T2, human S1P3 receptor; assay: Calcium mobilization assay, antagonist activity at human S1P3; type: cell-based; settings: recombinant CHEM cells expressing human S1P3, FLIPR Calcium 4 dye (FIG. 10, FIG. 11)
Description: as §1

[4] = system: circulating lymphocytes; assay: Lymphopenia assay: circulating lymphocytes after oral gavage; type: in vivo; settings: C57bl/6 male mice, oral gavage 0.5 and 5 mg/kg in 30% HPCD, blood 5 and 24 hours after administration; for ED50: Mus musculus, Lymphocyte, po
Description: Measurement of circulating lymphocytes: Compounds were dissolved in 30% HPCD. Mice (C57bl/6 male, 6-10 week-old) were administered 0.5 and 5 mg/kg of a compound via oral gavage. 30% HPCD was included as a negative control.
Blood was collected from the retro-orbital sinus 5 and 24 hours after drug administration under short isoflurane anesthesia. Whole blood samples were subjected to hematology analysis. Peripheral lymphocyte counts were determined using an automated analyzer (HEMAVET™ 3700). Three mice were used to assess the lymphocyte depletion activity of each compound screened.
Compounds of formula (I) induced full lymphopenia at times as short as 3 hours or less to as long as 48 hours or more; for example, 4 to 36 hours, or 5 to 24 hours. In some cases, a compound of formula induced full lymphopenia at 5 hours and partial lymphopenia at 24 hours. The dosage required to induce lymphopenia can be in the range of, e.g., 0.001 mg/kg to 100 mg/kg; or 0.01 mg/kg to 10 mg/kg. The dosage can be 10 mg/kg or less, such as 5 mg/kg or less, 1 mg/kg or less, or 0.1 mg/kg or less

T1 sequence (P21453 whole entry): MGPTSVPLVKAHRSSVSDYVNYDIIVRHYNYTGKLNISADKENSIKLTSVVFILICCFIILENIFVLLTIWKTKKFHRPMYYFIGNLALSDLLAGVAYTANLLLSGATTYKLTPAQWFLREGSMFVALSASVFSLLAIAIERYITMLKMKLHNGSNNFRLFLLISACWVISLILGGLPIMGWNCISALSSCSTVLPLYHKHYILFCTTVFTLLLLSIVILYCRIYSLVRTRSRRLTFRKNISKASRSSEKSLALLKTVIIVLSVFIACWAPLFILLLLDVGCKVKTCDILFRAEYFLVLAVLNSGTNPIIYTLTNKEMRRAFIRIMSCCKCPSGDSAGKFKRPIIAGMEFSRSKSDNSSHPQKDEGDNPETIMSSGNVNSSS

| Compound | ED50 [4] [mg/kg] | other results |
| --- | --- | --- |
| C[C@](N)(COP(=O)(O)O)c1ccc2c(C(F)(F)F)c(O[C@H]3CC[C@H](C(F)(F)F)CC3)ccc2c1 [Example 269, Phosphoric acid mono-{(R)-2-amino-2-[5-trifluoromethyl-6-(trans-4-trifluoromethyl-cyclohexyloxy)-naphthalen-2-yl]-propyl}ester] | – | S1P1 agonist activity [1]: S1P, agonists; S1P3 agonist activity [2]: not S1P3 agonists; S1P3 antagonist activity [3]: S1P3 antagonists |
| COc1ccc2cc([C@H](C)COC(N)=O)ccc2c1 [Example 2, carbamic acid (S)-2-(6-methoxy-naphthalen-2-yl)-propyl ester] | – | S1P3 agonist activity [2]: no activity was seen |
| CC(C)(C)[C@H]1CC[C@H](Oc2ccc3cc(C(N)(COP(=O)(O)O)COP(=O)(O)O)ccc3c2C(F)(F)F)CC1 [Example 61A, 2-amino-2-[6-(trans-4-tert-butylcyclohexyloxy)-5-trifluoromethyl-naphthalen-2-yl]-propane-1,3-diphosphoric acid] | – | S1P1 agonist activity [1]: agonists of the S1P, receptor, with potencies similar to S1P; S1P3 antagonist activity [3]: do not antagonize the S1P3 receptor |
| CCCCCCCCCCCCC/C=C/[C@@H](O)[C@@H](N)COP(=O)(O)O [Example S1P, Sphingosine 1-phosphate] | – | S1P3 agonist activity [2]: full S1P3 agonist |
| CC(C)CCOc1cccc(Oc2ccc3cc(C(N)(CO)CO)ccc3c2)c1 [Example 198, 2-Amino-2-(6-(3-(isopentyloxy)phenoxy)naphthalen-2-yl)propane-1,3-diol] | 0.5 to 5 | – |
| CC(C)(C)[C@H]1CC[C@@H](Oc2ccc3cc([C@](C)(N)CO)ccc3c2C(F)(F)F)CC1 (relative stereo) [Example 128, (S)-2-amino-2-[6-(4-cis-tert-butyl-cyclohexyloxy)-5-trifluoromethyl-naphthalen-2-yl]-propan-1-ol] | – | Lymphopenia (ED50 mg/kg) [4]: 0.5 to 5 mg/kg |
| Cc1ccc(Oc2ccc3cc([C@@](C)(N)CO)ccc3c2)cc1 [Example 180, (R)-2-Amino-2-(6-(p-tolyloxy)naphthalen-2-yl)propan-1-ol] | 0.5 to 5 | – |
| CCOc1ccc(-c2c(O[C@H]3CC[C@H](C(C)(C)C)CC3)ccc3cc([C@@](C)(N)CO)ccc23)cc1 [Example 227, (R)-2-amino-2-(6-(trans-4-tert-butylcyclohexyloxy)-5-(4-ethoxyphenyl)naphthalen-2-yl)propan-1-ol] | 0.5 to 5 | – |
| Cc1ccc(Oc2ccc3cc([C@@](C)(N)CO)ccc3c2)cc1C [Example 184, (R)-2-Amino-2-(6-(3,4-dimethylphenoxy)naphthalen-2-yl)propan-1-ol] | > 5 | – |
| CC(F)(F)[C@H]1CC[C@@H](Oc2ccc3cc([C@@](C)(N)CO)ccc3c2)CC1 [Example 319, (R)-2-amino-2-(6-(cis-4-(1,1-difluoroethyl)cyclohexyloxy)naphthalen-2-yl)propan-1-ol] | > 5 | – |
| Cl.NC(CO)(CO)c1ccc2cc(O[C@H]3C[C@H](COCc4ccccc4)C3)ccc2c1 [Example 65] | – | Lymphopenia (ED50 mg/kg) [4]: <0.5 mg/kg |
| C[C@](N)(CO)c1ccc2cc(O[C@H]3C[C@H](COCc4ccccc4)C3)ccc2c1 (relative stereo) [Example 76] | – | Lymphopenia (ED50 mg/kg) [4]: 0.5 to 5 mg/kg |
| CCC(F)(F)[C@H]1CC[C@@H](Oc2ccc3cc([C@@](C)(N)CO)ccc3c2)CC1 [Example 325, (R)-2-amino-2-(6-(cis-4-(1,1-difluoropropyl)cyclohexyloxy)naphthalen-2-yl)propan-1-ol] | > 5 | – |
| CC(F)(F)[C@H]1CC[C@H](Oc2ccc3cc([C@@](C)(N)CO)ccc3c2C(F)(F)F)CC1 [Example 334, (R)-2-amino-2-(6-(trans-4-(1,1-difluoroethyl)cyclohexyloxy)-5-(trifluoromethyl)naphthalen-2-yl)propan-1-ol] | < 0.5 | – |
| CC(N)(CCC(=O)O)c1ccc2c(C(F)(F)F)c(O[C@H]3CC[C@H](C(C)(C)C)CC3)ccc2c1 (stereo partly drawn) [Example 211, 4-amino-4-(6-(trans-4-tert-butylcyclohexyloxy)-5-(trifluoromethyl)naphthalen-2-yl) pentanoic acid] | 0.5 to 5 | – |
| CCCC(F)(F)[C@H]1CC[C@@H](Oc2ccc3cc([C@@](C)(N)CO)ccc3c2)CC1 [Example 331, (R)-2-amino-2-(6-(cis-4-(1,1-difluorobutyl)cyclohexyloxy)naphthalen-2-yl)propan-1-ol] | > 5 | – |
| CC(C)(C)[C@H]1CC[C@H](Oc2ccc3cc([C@@](C)(N)CO)ccc3c2-c2cncnc2)CC1 [Example 225, (R)-2-amino-2-(6-(trans-4-tert-butylcyclohexyloxy)-5-(pyrimidin-5-yl)naphthalen-2-yl)propan-1-ol] | > 5 | – |
| CC(C)(C)[C@H]1CC[C@H](Oc2ccc3cc([C@]4(C)COC(=O)N4)ccc3c2C(F)(F)F)CC1 [Example 131, (R)-4-(6-(trans-4-tert-butylcyclohexyloxy)-5-(trifluoromethyl)naphthalen-2-yl)-4-methyloxazolidin-2-one] | < 0.5 | – |
| CC(C)(C)[C@H]1CC[C@H](Oc2ccc3cc([C@@](C)(N)CO)ccc3c2-c2ccc(S(C)(=O)=O)cc2)CC1 [Example 223, (R)-2-amino-2-(6-(trans-4-tert-butylcyclohexyloxy)-5-(4-(methylsulfonyl)phenyl)naphthalen-2-yl)propan-1-ol] | > 5 | – |
| CC1(C)CCC(Oc2ccc3cc([C@@](C)(N)CO)ccc3c2)CC1 [Example 47, (R)-2-amino-2-(6-(4,4-dimethylcyclohexyloxy)naphthalen-2-yl)propan-1-ol] | > 5 | – |
| CCCC[C@H]1CC[C@@H](Oc2ccc3cc([C@@](C)(N)CO)ccc3c2)CC1 [Example 6, (R)-2-amino-2-(6-(cis-4-butylcyclohexyloxy)naphthalen-2-yl)propan-1-ol] | 0.75 | – |
| CC(C)(C)[C@H]1CC[C@H](Oc2ccc3cc([C@@](C)(N)CO)ccc3c2)CC1 [Example 25, (R)-2-amino-2-(6-(trans-4-tert-butylcyclohexyloxy)naphthalen-2-yl)propan-1-ol] | – | Lymphopenia (ED50 mg/kg) [4]: >5 mg/kg |
| CCc1ccccc1Oc1ccc2cc([C@@](C)(N)CO)ccc2c1 [Example 182, (R)-2-Amino-2-(6-(2-ethylphenoxy)naphthalen-2-yl)propan-1-ol] | 0.5 to 5 | – |
| CC(C)(C)C1CCC(Cc2ccc3cc([C@@](C)(N)CO)ccc3c2)CC1 (stereo partly drawn) [Example 146, (R)-2-amino-2-(6-((4-tert-butylcyclohexyl)methyl)naphthalen-2-yl)propan-1-ol] | 0.5 to 5 | – |
| C[C@](N)(CO)c1ccc2cc(Oc3ccc(F)c(Cl)c3)ccc2c1 [Example 185, (R)-2-Amino-2-(6-(3-chloro-4-fluorophenoxy)naphthalen-2-yl)propan-1-ol] | 0.5 to 5 | – |
| (R)-2-amino-2-(6-((1R,2R,4S)-bicyclo[2.2.1]heptan-2-yloxy)naphthalen-2-yl)propan-1-ol [Example 105] | – | Lymphopenia (ED50 mg/kg) [4]: >5 mg/kg |
| CCC(C)(C)[C@H]1CC[C@@H](Oc2ccc3cc([C@@](C)(N)CO)ccc3c2)CC1 (relative stereo) [Example 79, (R)-2-Amino-2-[6-(4-cis-tert-pentylcyclohexyloxy)naphthalen-2-yl]propan-1-ol] | – | Lymphopenia (ED50 mg/kg) [4]: >5 mg/kg |

Source: US8269043B2, “Bicyclic aryl sphingosine 1-phosphate analogs” (Biogen Idec MA Inc., priority 2008, dated 2012)
